From article PMC12435777, “Assessing Acetyl-Coenzyme A Carboxylase Activity and Inhibition in Caenorhabtidis elegans Using a Partially Purified Protein Extract” (Analytical Chemistry, 2025)

Target: acetyl-CoA carboxylase (ACC, POD-2) (Caenorhabditis elegans, UniProt H2L0M0)
Test: real-time HPLC and NMR kinetics of malonyl-CoA formation with partially purified enzyme extract; Ki estimated from the change in KM
Assay type: biochemical

acetyl-CoA carboxylase (ACC, POD-2), sequence (H2L0M0 entry or part of it): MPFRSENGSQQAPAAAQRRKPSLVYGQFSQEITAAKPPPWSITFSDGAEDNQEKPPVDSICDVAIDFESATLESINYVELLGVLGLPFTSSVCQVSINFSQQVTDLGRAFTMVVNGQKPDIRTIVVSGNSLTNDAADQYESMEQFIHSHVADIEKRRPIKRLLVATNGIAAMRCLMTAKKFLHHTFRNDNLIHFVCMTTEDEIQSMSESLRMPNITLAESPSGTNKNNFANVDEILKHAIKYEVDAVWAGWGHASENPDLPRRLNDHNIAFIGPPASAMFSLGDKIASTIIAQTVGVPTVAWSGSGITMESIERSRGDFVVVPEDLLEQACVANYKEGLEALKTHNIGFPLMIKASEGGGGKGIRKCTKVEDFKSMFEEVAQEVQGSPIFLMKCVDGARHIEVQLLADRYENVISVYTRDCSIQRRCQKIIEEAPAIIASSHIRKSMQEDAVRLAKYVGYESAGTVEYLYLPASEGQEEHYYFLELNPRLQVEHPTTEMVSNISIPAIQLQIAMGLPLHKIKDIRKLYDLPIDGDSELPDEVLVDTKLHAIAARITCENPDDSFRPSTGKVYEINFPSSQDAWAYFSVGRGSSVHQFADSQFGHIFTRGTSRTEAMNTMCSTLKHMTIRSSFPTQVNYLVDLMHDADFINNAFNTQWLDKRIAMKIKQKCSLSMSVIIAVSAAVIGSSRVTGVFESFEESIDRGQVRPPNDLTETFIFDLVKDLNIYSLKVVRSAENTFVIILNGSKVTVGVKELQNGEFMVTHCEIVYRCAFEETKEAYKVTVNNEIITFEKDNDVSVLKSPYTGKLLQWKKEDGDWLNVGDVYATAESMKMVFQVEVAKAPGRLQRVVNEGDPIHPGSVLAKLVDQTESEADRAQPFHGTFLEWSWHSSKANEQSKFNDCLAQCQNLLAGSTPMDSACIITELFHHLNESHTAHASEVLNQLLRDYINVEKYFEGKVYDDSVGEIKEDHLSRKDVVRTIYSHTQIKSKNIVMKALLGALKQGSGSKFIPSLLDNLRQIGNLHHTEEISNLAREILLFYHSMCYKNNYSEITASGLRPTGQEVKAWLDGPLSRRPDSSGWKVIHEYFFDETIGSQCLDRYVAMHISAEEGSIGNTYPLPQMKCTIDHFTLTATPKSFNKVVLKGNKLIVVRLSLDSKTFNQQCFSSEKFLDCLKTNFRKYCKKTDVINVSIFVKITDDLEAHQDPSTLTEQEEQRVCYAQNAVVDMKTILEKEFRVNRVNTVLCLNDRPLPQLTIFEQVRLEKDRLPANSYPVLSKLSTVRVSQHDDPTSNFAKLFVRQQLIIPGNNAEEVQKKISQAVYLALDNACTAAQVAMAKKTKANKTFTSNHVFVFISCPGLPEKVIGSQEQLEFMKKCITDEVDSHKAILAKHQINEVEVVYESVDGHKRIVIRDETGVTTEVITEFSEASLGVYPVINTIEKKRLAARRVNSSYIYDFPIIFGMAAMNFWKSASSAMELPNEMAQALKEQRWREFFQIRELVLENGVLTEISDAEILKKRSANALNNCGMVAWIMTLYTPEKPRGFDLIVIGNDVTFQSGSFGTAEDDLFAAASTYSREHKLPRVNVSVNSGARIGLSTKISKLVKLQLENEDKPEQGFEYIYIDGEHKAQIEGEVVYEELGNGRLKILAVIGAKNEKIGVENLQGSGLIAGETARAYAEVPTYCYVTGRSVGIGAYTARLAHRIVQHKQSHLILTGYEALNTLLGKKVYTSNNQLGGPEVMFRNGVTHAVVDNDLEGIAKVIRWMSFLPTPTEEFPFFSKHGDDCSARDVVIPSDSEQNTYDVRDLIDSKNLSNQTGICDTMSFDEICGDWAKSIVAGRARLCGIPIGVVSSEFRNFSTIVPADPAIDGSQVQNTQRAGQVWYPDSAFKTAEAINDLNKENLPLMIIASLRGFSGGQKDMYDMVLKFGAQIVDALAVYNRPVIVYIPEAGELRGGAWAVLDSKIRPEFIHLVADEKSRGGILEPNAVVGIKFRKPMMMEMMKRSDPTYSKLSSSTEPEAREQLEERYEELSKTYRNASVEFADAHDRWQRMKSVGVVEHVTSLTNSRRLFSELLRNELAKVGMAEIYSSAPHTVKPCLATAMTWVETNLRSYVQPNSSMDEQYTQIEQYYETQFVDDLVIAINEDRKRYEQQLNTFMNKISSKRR

Ki: ~12.5 µM
Compound: C=CCCCCCCCCCCC[C@@H](O)C[C@@H](O)COC(C)=O [avocadene acetate]
